Columns and labels:
PARS = PARS (Mus musculus, UniProt P11103); test: PARS inhibition by nucleoside derivatives (in vitro inflammation models); assay type: cell-based
Description: For example, conjugates of adenosine derivatives were investigated for PARS inhibition.

[1] = test system: endotoxin-induced lethality in a mouse model; test: Endotoxin-induced lethality (systemic inflammation); assay type: in vivo
Description: The compounds were given as oral gavage at 10 mg/kg, twice a day.

[2] = test system: myocardial ischemia-reperfusion in Male Wistar rats; test: Myocardial infarction by left anterior descending coronary artery occlusion/reperfusion; assay type: in vivo; conditions: rat; 20 mg/kg i.v. 10 min before reperfusion; 1 h ischemia, 2 h reperfusion
Description: In another set of experiments, Male Wistar rats were anesthetized with thiopentone sodium (60 mg/kg, i.p.) and were subjected to myocardial infarction. The chest was opened at the fourth intercostal space and a 5.0 silk ligature was placed around the left anterior descending coronary artery for occlusion. Next, one hour of myocardial ischemia was performed, followed by 2 h reperfusion. Myocardial infarct size was quantified by tetrazolium staining.

[3] = test system: mouse model of gut ischemia-reperfusion; test: Gut ischemia-reperfusion by ligation and release of superior mesenteric artery; FD4 gut permeability in everted gut sacks; conditions: 10 mg/kg i.v. 10 min prior to reperfusion
Description: In order to examine the efficacy of the compounds of the invention in ischemia-reperfusion conditions, the effect of selected compounds in a local model of reperfusion injury was examined. […] The artery was occluded for 45 min, followed by reperfusion for 1 h. Following the end of the reperfusion, gut permeability was measured with the fluorescein isothiocyanate-conjugated dextran (FD4) method in everted gut sacks.
The artery was occluded for 45 min, followed by reperfusion for 1 h. Following the end of the reperfusion, gut permeability was measured with the FD4 method in everted gut sacks.

[4] = test system: rat model of middle cerebral artery occlusion/reperfusion; test: Middle cerebral artery occlusion/reperfusion; assay type: in vivo; conditions: 2 h occlusion, 24 h reperfusion, 10 mg/kg i.v. then 10 mg/kg/h, tetrazolium staining
Description: Occlusion lasted for 2 hours, followed by reperfusion for 24 hours. Infarct size was quantified with tetrazolium staining and survival and neurological scores were monitored. The compounds were administered at 10 mg/kg i.v. 5 min before the start of reperfusion in one group, and continued at a rate of 10 mg/kg/h infusion during the reperfusion. Vehicle-treated animals (control) developed a >50% mortality over 24 hours, whereas <10% of the animals died in the drug treated groups. The compounds tested reduced the size of brain infarction by 64±2 and 57±3%, respectively.

PARS, sequence (P11103 whole entry): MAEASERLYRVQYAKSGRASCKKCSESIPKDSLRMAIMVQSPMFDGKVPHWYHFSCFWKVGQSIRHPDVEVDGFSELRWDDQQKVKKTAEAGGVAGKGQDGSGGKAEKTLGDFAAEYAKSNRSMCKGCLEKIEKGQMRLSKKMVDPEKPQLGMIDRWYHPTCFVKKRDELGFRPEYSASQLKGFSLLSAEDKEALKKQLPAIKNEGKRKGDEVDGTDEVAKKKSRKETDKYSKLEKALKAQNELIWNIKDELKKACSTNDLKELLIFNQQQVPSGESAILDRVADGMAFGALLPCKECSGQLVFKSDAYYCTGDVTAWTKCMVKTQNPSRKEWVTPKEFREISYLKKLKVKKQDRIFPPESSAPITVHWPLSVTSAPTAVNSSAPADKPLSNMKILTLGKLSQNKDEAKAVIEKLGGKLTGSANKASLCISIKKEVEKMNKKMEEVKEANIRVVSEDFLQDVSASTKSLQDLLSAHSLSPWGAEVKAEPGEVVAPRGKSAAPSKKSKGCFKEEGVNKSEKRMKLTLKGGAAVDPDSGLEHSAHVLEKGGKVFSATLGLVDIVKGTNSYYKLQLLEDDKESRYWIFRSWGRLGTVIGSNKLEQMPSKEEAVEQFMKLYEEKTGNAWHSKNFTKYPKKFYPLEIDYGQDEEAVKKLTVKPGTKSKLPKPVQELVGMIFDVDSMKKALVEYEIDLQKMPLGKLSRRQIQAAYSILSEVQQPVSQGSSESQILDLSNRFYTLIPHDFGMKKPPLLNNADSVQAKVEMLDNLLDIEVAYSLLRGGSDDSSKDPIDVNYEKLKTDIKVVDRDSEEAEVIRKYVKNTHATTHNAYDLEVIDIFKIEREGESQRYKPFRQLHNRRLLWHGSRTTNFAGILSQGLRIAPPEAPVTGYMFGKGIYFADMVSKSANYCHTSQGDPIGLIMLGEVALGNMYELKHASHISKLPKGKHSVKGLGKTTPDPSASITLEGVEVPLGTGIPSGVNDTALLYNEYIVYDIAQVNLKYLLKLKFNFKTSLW

Nc1ncnc2c1ncn2C1OC(C(=O)N2CCN(CC(=O)Nc3cccc4c3CNC4=O)CC2)C(O)C1O (stereo not shown) [Compound 130]
PARS inhibitory activity (in words) (PARS): most potent
inhibition at 10 µM (PARS; 10 μM, values marked *, asterisk not explained, read-out: Inhibition at 10 μM (values marked *)): 97%
Inhibition at 200 nm (PARS; 200 nm, printed in the 100 μM column): 100 at 200 nm
protection against endotoxin-induced lethality [1]: protected against endotoxin-induced lethality
reduction of myocardial infarct size [2]: 35±7%
reduction of the increase in the permeability of the gut [3]: 74%
reduction of the size of brain infarction [4]: 57±3%
